Counter-ions that a name gives are not always drawn.
Tested on: HCT116 cells
Experiment: Effects on HCT116 colorectal cancer cell viability (cell titre blue, 72 hours)
Assay type: cell-based
Conditions: Homo sapiens, HCT-116, HCT116 cell line
Method: Assay to Measure the Effects of Compounds of the Invention on HCT116 Colorectal Cancer Cell Viability
The following protocol was used to measure the effects of compounds of the invention on HCT116 cell viability.
1. HCT116 cells were grown in RPM11640 media supplemented with Glutamax and 10% FBS in a 37° C./5% CO2 incubator.
2. Growing culture of HCT116 cells were trypsinised, counted and diluted to give 10,000 cells/mL in an appropriate volume, allowing at least 6 mL of cells per plate.
3. 200 μL of PBS were added to all the outer wells of a flat-bottomed (8×12) 96-well TC plate. 100 μL of media were added only to wells in column 11 of the plates (these wells provided a blank for the cell titre blue assay). Two compounds were assayed on each plate.
4. 100 ul of 10,000 cells/mL HCT116s were plated in rows B-G of each plate.
5. The cells were incubated (37° C. 5% CO2) for 24 hours before treating with compounds.
6. An 8 mM compound stock in DMSO was prepared for all compounds to be tested. 2.5 μL of the compound stock was added to 1000 μL growth medium in a 96-well deep well block and serial dilutions were prepared across the plate by transferring 500 μL into wells containing 500 μL growth medium+0.25% DMSO to give eight concentrations of compound (this ensured a constant amount of DMSO at all concentrations of compound). When making up growth medium+DMSO, an amount of 5 ml was allowed per compound to be diluted.
7. 3 rows of cells were treated with 100 μL/well from each row on the dilution plate so that each cell plate is treated with a single compound. This gave a final volume in all wells of 200 μL and a titration of compound from a final concentration of 10 uM down to 78 nM.
8. The cells were incubated (37° C. 5% CO2) for 72 hours.
9. 5 ul cell titre blue reagent (Promega) were added to all wells except the edge wells (which contain PBS only) and incubated (37° C. 5% CO2) for 2.5-3 hours.
10. Fluorescence was measured on a suitable plate reader using a 530-570 nm filter set for excitation and a 580-620 nm filter set for fluorescence emission.
11. Data were analysed using an appropriate graphing package (such as GraphPad Prism). Data were expressed as the concentration of compound causing a 50% inhibition of cell viability or GI50.

Row | Compound | GI50
1 | CN(C)CCNC(=O)c1cccc(-c2ccc(-c3ccc(F)cc3)n2-c2ccccc2C(F)(F)F)c1 [Example 5, hydrochloride] | 560 nM
2 | CN(C)CCNC(=O)c1cccc(-c2ccc(-c3ccc(Oc4ccccc4)cc3)n2-c2ccc(F)cc2)c1 [Example 8, hydrochloride] | 1850 nM
3 | CN(C)CCCNc1cccc(-c2ccc(-c3ccc(Br)cc3)n2-c2ccccc2C(F)(F)F)c1 [Example 16, N-[3-[5-(4-Bromophenyl)-1-[2-(trifluoromethyl)phenyl]pyrrol-2-yl]phenyl]-N′,N′-dimethyl-propane-1,3-diamine Hydrochloride] | 2720 nM
4 | CN(C)CCNC(=O)c1ccc(Cl)c(-c2ccc(-c3ccc(Br)cc3)n2-c2ccccc2)c1 [Example 19, hydrochloride] | 4210 nM
5 | COc1ccc(C(=O)NCCN(C)C)cc1-c1ccc(-c2ccc(Br)cc2)n1-c1ccccc1 [Example 20, hydrochloride] | 3940 nM
6 | CN(C)CC(=O)NCc1cccc(-c2ccc(-c3ccc(Br)cc3)n2-c2ccccc2C(F)(F)F)c1 [Example 21, N-[[3-[5-(4-Bromophenyl)-1-[2-(trifluoromethyl)phenyl]pyrrol-2-yl]phenyl]methyl]-2-(dimethylamino)acetamide Hydrochloride] | 1060 nM
7 | O=C(O)c1ccc(-c2ccc(-c3ccc(Br)cc3)n2-c2ccccc2C(F)(F)F)cc1 [Example 27, 4-[5-(4-bromophenyl)-1-[2-(trifluoromethyl)phenyl]pyrrol-2-yl]benzoic acid] | 4740 nM
8 | O=C(O)c1ccc(-c2ccc(-c3ccc(Br)cc3)n2-c2ccccc2C(F)(F)F)nc1 [Example 30, 6-[5-(4-bromophenyl)-1-[2-(trifluoromethyl)phenyl]pyrrol-2-yl]pyridine-3-carboxylic acid] | 8440 nM
9 | COc1cc(-c2ccc(-c3ccc(Br)cc3)n2-c2ccccc2C(F)(F)F)ccc1C(=O)NCCCN(C)C [Example 31, hydrochloride] | 1450 nM
10 | CN(C)CCNC(=O)c1ccc(-c2ccc(-c3ccccc3)n2-c2ccccc2C(F)(F)F)cc1Cl [Example 39, hydrochloride] | 350 nM
11 | CN(C)CCNC(=O)c1ccc(-c2ccc(-c3ccc(Br)cc3)n2-c2ccccc2CN(C)C)cc1 [Example 40, hydrochloride] | 1030 nM
12 | CN(C)CCNC(=O)c1ccc(-c2ccc(-c3ccc(F)cc3F)n2-c2ccccc2C(F)(F)F)cc1 [Example 43] | 200 nM
13 | CN(C)CCNS(=O)(=O)c1ccc(-c2ccc(-c3ccc(Br)cc3)n2-c2ccccc2C(F)(F)F)cc1 [Example 44, 4-[5-(4-Bromophenyl)-1-[2-(trifluoromethyl)phenyl]pyrrol-2-yl]-N-[2-(dimethylamino)ethyl]benzenesulfonamide Hydrochloride] | 510 nM
14 | CN(C)CCOCc1ccc(-c2ccc(-c3ccc(Br)cc3)n2-c2ccccc2C(F)(F)F)cc1 [Example 45, 2-[[4-[5-(4-Bromophenyl)-1-[2-(trifluoromethyl)phenyl]pyrrol-2-yl]phenyl]methoxy]-N,N-dimethyl-ethanamine Hydrochloride] | 350 nM
15 | O=C(O)Cc1ccc(-c2ccc(-c3ccc(Br)cc3)n2-c2ccccc2C(F)(F)F)cc1 [Example 47, 2-[4-[5-(4-Bromophenyl)-1-[2-(trifluoromethyl)phenyl]pyrrol-2-yl]phenyl]acetic Acid] | 1380 nM
16 | CN1CCN(Cc2ccc(-c3ccc(-c4ccc(Br)cc4)n3-c3ccccc3C(F)(F)F)cc2)CC1 [Example 48, hydrochloride] | 410 nM
17 | COCc1ccccc1-n1c(-c2ccc(Br)cc2)ccc1-c1ccc(C(=O)NCCN(C)C)cc1 [Example 50] | 2180 nM
18 | COc1ccc(C(=O)NCCN(C)C)cc1-c1ccc(-c2ccc(Br)cc2)n1-c1ccccc1C(F)(F)F [Example 52, hydrochloride] | 350 nM
19 | CN(C)[C@@H]1CCN(C(=O)c2cccc(-c3ccc(-c4ccc(Br)cc4)n3-c3ccccc3C(F)(F)F)c2)C1 [Example 54, hydrochloride] | 1380 nM
20 | CN(C)[C@H]1CCN(C(=O)c2cccc(-c3ccc(-c4ccc(Br)cc4)n3-c3ccccc3C(F)(F)F)c2)C1 [Example 55, hydrochloride] | 2250 nM
21 | CC(C)Cc1ccc(C(F)(F)F)c(-n2c(-c3ccc(Cl)cc3)ccc2-c2ccc(C(=O)NCCN(C)C)cc2)c1 [Example 63, hydrochloride] | 1640 nM
22 | CC(C)Cc1ccc(C(F)(F)F)c(-n2c(-c3ccc(Cl)cc3)ccc2-c2ccc(C(=O)NCCCN(C)C)cc2)c1 [Example 64, hydrochloride] | 1700 nM
23 | NS(=O)(=O)c1ccc(-c2ccc(-c3ccc(Br)cc3)n2-c2ccccc2C(F)(F)F)cc1 [Example 65, 4-[5-(4-bromophenyl)-1-[2-(trifluoromethyl)phenyl]pyrrol-2-yl]benzenesulfonamide] | 1960 nM
24 | CN(C)CCNC(=O)c1ccc(-c2ccc(-c3ccc(C#N)nc3)n2-c2ccccc2C(F)(F)F)cc1 [Example 66, hydrochloride] | 890 nM
25 | CN(C)CCNC(=O)c1ccc(-c2ccc(-c3cccc(Cl)c3)n2-c2ccccc2C(F)(F)F)cc1 [Example 72, hydrochloride] | 1730 nM
26 | CN(C)CCCNC(=O)c1ccc(-c2ccc(-c3ccc(Cl)cn3)n2-c2ccccc2C(F)(F)F)cc1 [Example 76, hydrochloride] | 240 nM

These reach a lower GI50. Values come first.

Row | GI50 | Compound
27 | 60 nM | CN(C)CCNC(=O)c1ccc(-c2ccc(-c3ccc(Br)cc3)n2-c2ccccc2C(F)(F)F)nc1 [Example 29, 6-[5-(4-Bromophenyl)-1-[2-(trifluoromethyl)phenyl]pyrrol-2-yl]-N-[2-(dimethylamino)ethyl]pyridine-3-carboxamide Hydrochloride]
28 | 60 nM | COc1cc(C(=O)NCCN(C)C)ccc1-c1ccc(-c2ccc(Br)cc2)n1-c1ccccc1C(F)(F)F [Example 32, hydrochloride]
29 | 190 nM | CN(C)CCNC(=O)c1ccc(-c2ccc(-c3ccc(Br)cc3)n2-c2ccccc2C(F)(F)F)cc1Cl [Example 38]
30 | 160 nM | CN(C)CCC(=O)Nc1ccc(-c2ccc(-c3ccc(Br)cc3)n2-c2ccccc2C(F)(F)F)cc1 [Example 46, N-[4-[5-(4-Bromophenyl)-1-[2-(trifluoromethyl)phenyl]pyrrol-2-yl]phenyl]-3-(dimethylamino) propanamide Hydrochloride]
31 | 50 nM | CN(C)CCNC(=O)c1ccc(-c2ccc(-c3ccc(Cl)cc3)n2-c2cnccc2C(F)(F)F)cc1 [Example 49, hydrochloride]
32 | 100 nM | CN(C)CCCNC(=O)c1ccc(-c2ccc(-c3ccc(Cl)cc3)n2-c2cnccc2C(F)(F)F)cc1 [Example 51, hydrochloride]
33 | 70 nM | CN(C)CCNC(=O)c1ccc(-c2ccc(-c3ccccc3)n2-c2cnccc2C(F)(F)F)c(Cl)c1 [Example 67, hydrochloride]
34 | 110 nM | CN(C)CCCNC(=O)c1ccc(-c2ccc(-c3ccccc3)n2-c2cnccc2C(F)(F)F)c(Cl)c1 [Example 68, hydrochloride]
35 | 90 nM | COc1cc(C(=O)NCCN(C)C)ccc1-c1ccc(-c2ccc(Cl)cc2)n1-c1cnccc1C(F)(F)F [Example 73, hydrochloride]
36 | 130 nM | COc1cc(C(=O)NCCCN(C)C)ccc1-c1ccc(-c2ccc(Cl)cc2)n1-c1cnccc1C(F)(F)F [Example 74, hydrochloride]
37 | 150 nM | CN(C)CCNC(=O)c1ccc(-c2ccc(-c3ccc(Cl)cn3)n2-c2ccccc2C(F)(F)F)cc1 [Example 75, hydrochloride]

Reference: patent US11208405B2, “Pyrrole derivatives as PLK1 inhibitors” (SENTINEL ONCOLOGY LIMITED, priority 2017, dated 2021)
